Reference: PubChem BioAssay (NCI)
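Results reflect a 48-hour exposure of cells in 96-well plates to compound at five concentrations. GI50: concentration for 50% inhibition of growth. TGI denotes the concentration required for complete inhibition of growth.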

Experiments:
Test in all cases: DTP human tumour cell line panel, 48 h; in the data active = GI50 below about 0.43 µM; inactive = the rest
786-0 renal = tested on: 786-0 renal
A498 renal = tested on: A498 renal
A549 NSCLC = tested on: A549 NSCLC
ACHN renal = tested on: ACHN renal
BT-549 breast = tested on: BT-549 breast
CAKI-1 renal = tested on: CAKI-1 renal
CCRF-CEM leukemia = tested on: CCRF-CEM leukemia
COLO 205 colon = tested on: COLO 205 colon
DU-145 prostate = tested on: DU-145 prostate
EKVX NSCLC = tested on: EKVX NSCLC
HCC-2998 colon = tested on: HCC-2998 colon
HCT-116 colon = tested on: HCT-116 colon
HCT-15 colon = tested on: HCT-15 colon
HL-60(TB) leukemia = tested on: HL-60(TB) leukemia
HOP-62 NSCLC = tested on: HOP-62 NSCLC
HOP-92 NSCLC = tested on: HOP-92 NSCLC
HS 578T breast = tested on: HS 578T breast
HT29 colon = tested on: HT29 colon
IGROV1 ovarian = tested on: IGROV1 ovarian
K-562 leukemia = tested on: K-562 leukemia
KM12 colon = tested on: KM12 colon
LOX IMVI melanoma = tested on: LOX IMVI melanoma
M14 melanoma = tested on: M14 melanoma
MALME-3M melanoma = tested on: MALME-3M melanoma
MCF7 breast = tested on: MCF7 breast
MDA-MB-231 breast = tested on: MDA-MB-231 breast
MDA-MB-435 = tested on: MDA-MB-435
MOLT-4 leukemia = tested on: MOLT-4 leukemia
NCI-H226 lung = tested on: NCI-H226 lung
NCI-H23 lung = tested on: NCI-H23 lung
NCI-H460 lung = tested on: NCI-H460 lung
NCI-H522 lung = tested on: NCI-H522 lung
NCI/ADR-RES ovarian = tested on: NCI/ADR-RES ovarian
OVCAR-3 ovarian = tested on: OVCAR-3 ovarian
OVCAR-4 ovarian = tested on: OVCAR-4 ovarian
OVCAR-5 ovarian = tested on: OVCAR-5 ovarian
OVCAR-8 ovarian = tested on: OVCAR-8 ovarian
PC-3 prostate = tested on: PC-3 prostate
RPMI-8226 leukemia = tested on: RPMI-8226 leukemia
RXF 393 renal = tested on: RXF 393 renal
SF-268 CNS = tested on: SF-268 CNS
SF-295 CNS = tested on: SF-295 CNS
SF-539 CNS = tested on: SF-539 CNS
SK-MEL-28 melanoma = tested on: SK-MEL-28 melanoma
SK-MEL-5 melanoma = tested on: SK-MEL-5 melanoma
SN12C renal = tested on: SN12C renal
SNB-19 CNS = tested on: SNB-19 CNS
SNB-75 CNS = tested on: SNB-75 CNS
SW-620 colon = tested on: SW-620 colon
T-47D breast = tested on: T-47D breast
TK-10 renal = tested on: TK-10 renal
U251 CNS = tested on: U251 CNS
UACC-257 melanoma = tested on: UACC-257 melanoma
UACC-62 melanoma = tested on: UACC-62 melanoma
UO-31 renal = tested on: UO-31 renal

S=c1snc2n1CCN2
> 100 µM: TGI (786-0 renal) | TGI (A498 renal) | TGI (A549 NSCLC) | TGI (ACHN renal) | TGI (BT-549 breast) | TGI (CAKI-1 renal) | TGI (CCRF-CEM leukemia) | TGI (COLO 205 colon) | TGI (DU-145 prostate) | TGI (EKVX NSCLC) | TGI (HCT-116 colon) | TGI (HCT-15 colon) | TGI (HL-60(TB) leukemia) | TGI (HOP-62 NSCLC) | TGI (HOP-92 NSCLC) | TGI (HS 578T breast) | TGI (HT29 colon) | TGI (IGROV1 ovarian) | TGI (K-562 leukemia) | TGI (KM12 colon) | TGI (LOX IMVI melanoma) | TGI (M14 melanoma) | TGI (MALME-3M melanoma) | TGI (MCF7 breast) | TGI (MDA-MB-231 breast) | TGI (MDA-MB-435) | TGI (MOLT-4 leukemia) | TGI (NCI-H226 lung) | TGI (NCI-H23 lung) | TGI (NCI-H460 lung) | TGI (NCI-H522 lung) | TGI (NCI/ADR-RES ovarian) | TGI (OVCAR-3 ovarian) | TGI (OVCAR-4 ovarian) | TGI (OVCAR-5 ovarian) | TGI (OVCAR-8 ovarian) | TGI (PC-3 prostate) | TGI (RPMI-8226 leukemia) | TGI (RXF 393 renal) | TGI (SF-268 CNS) | TGI (SF-295 CNS) | TGI (SF-539 CNS) | TGI (SK-MEL-28 melanoma) | TGI (SK-MEL-5 melanoma) | TGI (SNB-19 CNS) | TGI (SNB-75 CNS) | TGI (SW-620 colon) | TGI (TK-10 renal) | TGI (U251 CNS) | TGI (UACC-257 melanoma) | TGI (UACC-62 melanoma) | TGI (UO-31 renal)
86.8 µM: TGI (SN12C renal)
74.7 µM: TGI (HCC-2998 colon)
inactive: GI50 (786-0 renal) 91.7 µM | GI50 (A498 renal) 65 µM | GI50 (A549 NSCLC) > 100 µM | GI50 (ACHN renal) > 100 µM | GI50 (BT-549 breast) > 100 µM | GI50 (CAKI-1 renal) > 100 µM | GI50 (CCRF-CEM leukemia) 33.4 µM | GI50 (COLO 205 colon) 25.2 µM | GI50 (DU-145 prostate) 91.3 µM | GI50 (EKVX NSCLC) > 100 µM | GI50 (HCC-2998 colon) 19.3 µM | GI50 (HCT-116 colon) 22.6 µM | GI50 (HCT-15 colon) > 100 µM | GI50 (HL-60(TB) leukemia) 48 µM | GI50 (HOP-62 NSCLC) > 100 µM | GI50 (HOP-92 NSCLC) > 100 µM | GI50 (HS 578T breast) > 100 µM | GI50 (HT29 colon) 65.9 µM | GI50 (IGROV1 ovarian) > 100 µM | GI50 (K-562 leukemia) > 100 µM | GI50 (KM12 colon) > 100 µM | GI50 (LOX IMVI melanoma) 81.7 µM | GI50 (M14 melanoma) > 100 µM | GI50 (MALME-3M melanoma) > 100 µM | GI50 (MCF7 breast) 39.3 µM | GI50 (MDA-MB-231 breast) 91.1 µM | GI50 (MDA-MB-435) > 100 µM | GI50 (MOLT-4 leukemia) 32.3 µM | GI50 (NCI-H226 lung) 32.3 µM | GI50 (NCI-H23 lung) > 100 µM | GI50 (NCI-H460 lung) 54.9 µM | GI50 (NCI-H522 lung) 40.9 µM | GI50 (NCI/ADR-RES ovarian) > 100 µM | GI50 (OVCAR-3 ovarian) > 100 µM | GI50 (OVCAR-4 ovarian) > 100 µM | GI50 (OVCAR-5 ovarian) > 100 µM | GI50 (OVCAR-8 ovarian) > 100 µM | GI50 (PC-3 prostate) 65.4 µM | GI50 (RPMI-8226 leukemia) 42.2 µM | GI50 (RXF 393 renal) > 100 µM | GI50 (SF-268 CNS) > 100 µM | GI50 (SF-295 CNS) > 100 µM | GI50 (SF-539 CNS) > 100 µM | GI50 (SK-MEL-28 melanoma) 64.4 µM | GI50 (SK-MEL-5 melanoma) 58.2 µM | GI50 (SN12C renal) 10.6 µM | GI50 (SNB-19 CNS) > 100 µM | GI50 (SNB-75 CNS) > 100 µM | GI50 (SW-620 colon) 40.5 µM | GI50 (T-47D breast) 0.85 µM | GI50 (TK-10 renal) > 100 µM | GI50 (U251 CNS) > 100 µM | GI50 (UACC-257 melanoma) > 100 µM | GI50 (UACC-62 melanoma) 95.5 µM | GI50 (UO-31 renal) > 100 µM
37.4 µM: TGI (T-47D breast)
